Reference: patent US20140243195A1, “N-Thio-anthranilamide compounds and their use as pesticides” (BASF SE, priority 2011, published 2014)

Columns and labels:
Type in all cases: in vivo
[1] = system: Cowpea Aphid (Aphis craccivora); experiment: Cowpea aphid (Aphis craccivora) spray test on potted cowpea plants; conditions: assessed after 72 hours, in comparison with untreated controls
Method: The active compound was dissolved at the desired concentration in a mixture of 1:1 (vol:vol) distilled water:acetone. Surfactant (Alkamuls® EL 620) is added at a rate of 0.1% (vol/vol). The test solution was prepared at the day of use.
Potted cowpea plants were colonized with approximately 50-100 aphids of various stages by manually transferring a leaf tissue cut from infested plant 24 hours before application. Plants were sprayed after the pest population has been recorded. Treated plants were maintained on light carts at about 28° C. Percent mortality was assessed after 72 hours.

[2] = system: Boll Weevil (Anthonomus grandis); experiment: Boll weevil (Anthonomus grandis) microtiter plate insect diet test; conditions: 120 h, egg and larval mortality after 5 days, in comparison with untreated controls
Method: For evaluating control of boll weevil (Anthonomus grandis) the test unit consisted of 96-well-microtiter plates containing an insect diet and 5-10 A. grandis eggs.
(§1) The compounds were formulated using a solution containing 75% v/v water and 25% v/v DMSO. Different concentrations of formulated compounds were sprayed onto the insect diet at 5 μl, using a custom built micro atomizer, at two replications.
After application, microtiter plates were incubated at about 25±1° C. and about 75±5% relative humidity for 5 days. Egg and larval mortality was then visually assessed.

[3] = system: Tobacco Budworm (Heliothis virescens); experiment: Tobacco budworm (Heliothis virescens) I spray test on cotton plants; conditions: 96 h, larvae, 4 days after treatment, in comparison with untreated controls
Method: (§2) The active compounds were formulated in cyclohexanone as a 10,000 ppm solution supplied in tubes. The tubes were inserted into an automated electrostatic sprayer equipped with an atomizing nozzle and they served as stock solutions for which lower dilutions were made in 50% acetone:50% water (v/v). A nonionic surfactant (Kinetic®) was included in the solution at a volume of 0.01% (v/v).
Cotton plants were grown 2 plants to a pot and selected for treatment at the cotyledon stage. Test solutions were sprayed onto the foliage by an automated electrostatic plant sprayer equipped with an atomizing spray nozzle. The plants were dried in the sprayer fume hood and then removed from the sprayer. Each pot was placed into perforated plastic bags with a zip closure. About 10 to 11 budworm larvae were placed into the bag and the bags zipped closed. Test plants were maintained in a growth room at about 25° C. and about 20-40% relative humidity for 4 days, avoiding direct exposure to fluorescent light (24 hour photoperiod) to prevent trapping of heat inside the bags. Mortality and reduced feeding were assessed 4 days after treatment, compared to untreated control plants.

[4] = system: Diamond Back Moth (Plutella xylostella); experiment: Diamond back moth (Plutella xylostella) cabbage leaf dip test; conditions: foliar, 3rd instar larvae, 72 hours after treatment, in comparison with untreated controls
Method: The active compound was dissolved at the desired concentration in a mixture of 1:1 (vol:vol) distilled water:acetone. Surfactant (Alkamuls® EL 620) is added at a rate of 0.1% (vol/vol).The test solution was prepared at the day of use.
Leaves of cabbage were dipped in test solution and air-dried. Treated leaves were placed in petri dishes lined with moist filter paper and inoculated with ten 3rd instar larvae. Mortality was recorded 72 hours after treatment. Feeding damages were also recorded using a scale of 0-100%.

[5] = system: Colorado Potato Beetle (Leptinotarsa decemlineata); experiment: Colorado potato beetle (Leptinotarsa decemlineata) spray test on eggplant foliage; conditions: foliar, 96 h, beetle larvae, 4 days after treatment, in comparison with untreated controls
Method: as §2
Eggplants were grown 2 plants to a pot and were selected for treatment at the 1st true leaf stage. Test solutions were sprayed onto the foliage by an automated electrostatic plant sprayer equipped with an atomizing spray nozzle. The plants were dried in the sprayer fume hood and then removed from the sprayer. The treated foliage was then cut and removed from the pot and placed in a Petri dish lined with moistened filter paper. Five beetle larvae were introduced into each Petri dish and the dish was covered by a Petri dish lid. Petri dishes were maintained in a growth room at about 25° C. and about 20-40% relative humidity for 4 days, avoiding direct exposure to fluorescent light (24 hour photoperiod) to prevent trapping of heat inside the dishes. Mortality and reduced feeding were assessed 4 days after treatment, compared to untreated control plants.

[6] = system: Mediterranean Fruitfly (Ceratitis capitata); experiment: Mediterranean fruitfly (Ceratitis capitata) microtiter plate insect diet test; conditions: 120 h, egg and larval mortality after 5 days, in comparison with untreated controls
Method: For evaluating control of Mediterranean fruitfly (Ceratitis capitata) the test unit consisted of microtiter plates containing an insect diet and 50-80 C. capitata eggs.
as §1
After application, microtiter plates were incubated at about 28±1° C. and about 80±5% relative humidity for 5 days. Egg and larval mortality was then visually assessed.

[7] = system: Vetch Aphid (Megoura viciae); experiment: Vetch aphid (Megoura viciae) broad bean leaf disk microtiter test; conditions: foliar, 120 h, adult aphids, after 5 days, in comparison with untreated controls
Method: For evaluating control of vetch aphid (Megoura viciae) through contact or systemic means the test unit consisted of 24-well-microtiter plates containing broad bean leaf disks.
The compounds were formulated using a solution containing 75% v/v water and 25% v/v DMSO. Different concentrations of formulated compounds were sprayed onto the leaf disks at 2.5 μl, using a custom built micro atomizer, at two replications.
After application, the leaf disks were air-dried and 5-8 adult aphids placed on the leaf disks inside the microtiter plate wells. The aphids were then allowed to suck on the treated leaf disks and incubated at about 23±1° C. and about 50±5% relative humidity for 5 days. Aphid mortality and fecundity was then visually assessed.

[8] = system: Southern Armyworm (Spodoptera eridania); experiment: Southern armyworm (Spodoptera eridania) spray test on lima bean plants; conditions: 96 h, larvae, 4 days after treatment, in comparison with untreated controls
Method: as §2
Lima bean plants (variety Sieva) were grown 2 plants to a pot and selected for treatment at the 1st true leaf stage. Test solutions were sprayed onto the foliage by an automated electrostatic plant sprayer equipped with an atomizing spray nozzle. The plants were dried in the sprayer fume hood and then removed from the sprayer. Each pot was placed into perforated plastic bags with a zip closure. About 10 to 11 armyworm larvae were placed into the bag and the bags zipped closed. Test plants were maintained in a growth room at about 25° C. and about 20-40% relative humidity for 4 days, avoiding direct exposure to fluorescent light (24 hour photoperiod) to prevent trapping of heat inside the bags. Mortality and reduced feeding were assessed 4 days after treatment, compared to untreated control plants.

[9] = system: Orchid Thrips (Dichromothrips corbetti); experiment: Orchid thrips (Dichromothrips corbetti) floral-immersion test; conditions: adult thrips, 72 hours after treatment, in comparison with untreated controls
Method: Dichromothrips corbetti adults used for bioassay were obtained from a colony maintained continuously under laboratory conditions. For testing purposes, the test compound was diluted in a 1:1 mixture of acetone:water (vol:vol), plus 0.01% vol/vol Alkamuls® EL 620 surfactant.
Thrips potency of each compound was evaluated by using a floral-immersion technique. Plastic petri dishes were used as test arenas. All petals of individual, intact orchid flowers were dipped into treatment solution and allowed to dry. Treated flowers were placed into individual petri dishes along with—about 20 adult thrips. The petri dishes were then covered with lids. All test arenas were held under continuous light and a temperature of about 28° C. for duration of the assay. After 3 days, the numbers of live thrips were counted on each flower, and along inner walls of each petri dish. The percent mortality was recorded 72 hours after treatment.

Cc1cc(Cl)cc(C(=O)N=S2CCCC2)c1NC(=O)c1ccc(C(F)(F)F)cc1-c1ncccc1Cl [Compound 1-7, 5-chloro-2-[[2-(3-chloro-2-pyridyl)-4-(trifluoromethyl)benzoyl]amino]-3-methyl-N-(thiolan-1-ylidene)benzamide]
≥ 75%: mortality at 300 ppm [1] | mortality at 2500 ppm [2] | mortality at 2500 ppm [3] | mortality at 300 ppm [4] | mortality at 10 ppm [5] | mortality at 2500 ppm [6] | mortality at 2500 ppm [7] | mortality at 300 ppm [8] | mortality at 500 ppm [9]
